The values that follow come from PMC7522982, “PKIS deep dive yields a chemical starting point for dark kinases and a cell active BRSK2 inhibitor” (Scientific Reports, 2020).

Common to all, as to assay: DiscoverX scanMAX competition binding assay
Design in all cases: purchased Eurofins DiscoverX (scanMAX) / Eurofins enzymatic assays

In one experiment the target is RPS6KA6/RSK4 (Homo sapiens, UniProt Q9UK32). From the text: (§1) Based on its narrow profile when tested in the combined Nanosyn and TSA panels, GW296115 was included in the recently released Kinase Chemogenomic Set (KCGS)[15]. All of the data presented in the Introduction section was collected prior to the inclusion of GW296115 in KCGS and everything that follows has been subsequently generated. Since its inclusion in PKIS and more recently KCGS, we have carried out a broader round of screening at DiscoverX. This profiling data has not been previously released and is reported here for the first time. GW296115 was profiled against 403 wild type human kinases at 1 μM using the DiscoverX scanMAX screening platform, which employs an active site-directed competition binding assay to quantitatively measure interactions between test compounds and kinases, [16]. GW296115 inhibited 25 kinases > 90% at 1 μM, resulting in a selectivity index (S10) of 0.062 at 1 μM (Table S2, Fig. 1C)[17].
(§2) The scanMAX assays were performed at Eurofins DiscoverX Corporation as previously described.

The target of a further experiment is PDGFRA (Homo sapiens, UniProt P16234).
Text: as §1, §2

A further experiment has as its target MAP4K4/HGK (Homo sapiens, UniProt O95819).
Text: as §1, §2

The next experiment concerns the target STK33 (Homo sapiens, UniProt Q9BYT3).
Text: as §1, §2

In another experiment the target is CHEK2 (Homo sapiens, UniProt O96017).
Text: as §1, §2

MAP4K4/HGK, sequence (O95819 whole entry): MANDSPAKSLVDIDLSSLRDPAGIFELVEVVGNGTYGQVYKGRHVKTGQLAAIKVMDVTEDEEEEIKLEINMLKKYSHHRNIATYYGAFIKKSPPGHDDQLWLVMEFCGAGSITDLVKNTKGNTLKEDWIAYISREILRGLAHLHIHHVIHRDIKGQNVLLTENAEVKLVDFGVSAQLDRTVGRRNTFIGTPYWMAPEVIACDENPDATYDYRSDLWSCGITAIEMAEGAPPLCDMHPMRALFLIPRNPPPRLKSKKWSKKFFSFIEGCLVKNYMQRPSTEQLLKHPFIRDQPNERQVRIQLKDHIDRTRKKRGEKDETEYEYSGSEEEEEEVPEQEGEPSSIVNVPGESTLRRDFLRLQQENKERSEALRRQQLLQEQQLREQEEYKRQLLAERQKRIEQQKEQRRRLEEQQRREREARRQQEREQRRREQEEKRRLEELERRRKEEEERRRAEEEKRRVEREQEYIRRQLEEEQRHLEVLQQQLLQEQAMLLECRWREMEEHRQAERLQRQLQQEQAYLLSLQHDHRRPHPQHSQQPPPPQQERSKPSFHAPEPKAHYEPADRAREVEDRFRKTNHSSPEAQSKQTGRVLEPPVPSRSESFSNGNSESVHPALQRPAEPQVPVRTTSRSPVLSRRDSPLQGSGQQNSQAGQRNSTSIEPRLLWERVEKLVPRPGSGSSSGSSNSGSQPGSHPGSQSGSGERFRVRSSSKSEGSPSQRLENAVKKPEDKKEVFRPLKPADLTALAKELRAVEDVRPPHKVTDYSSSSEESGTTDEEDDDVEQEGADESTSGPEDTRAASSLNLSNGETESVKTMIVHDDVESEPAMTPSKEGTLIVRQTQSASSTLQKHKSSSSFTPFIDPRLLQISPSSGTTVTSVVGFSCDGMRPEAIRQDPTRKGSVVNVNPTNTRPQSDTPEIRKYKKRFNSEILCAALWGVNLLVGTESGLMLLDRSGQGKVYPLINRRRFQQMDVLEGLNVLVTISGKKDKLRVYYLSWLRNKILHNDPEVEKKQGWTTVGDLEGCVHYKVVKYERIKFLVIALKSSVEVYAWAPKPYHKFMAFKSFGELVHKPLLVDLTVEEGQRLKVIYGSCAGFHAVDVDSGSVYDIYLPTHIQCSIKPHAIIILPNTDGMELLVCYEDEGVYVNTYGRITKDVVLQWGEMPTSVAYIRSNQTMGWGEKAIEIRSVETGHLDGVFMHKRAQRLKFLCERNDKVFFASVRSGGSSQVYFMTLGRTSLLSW
RPS6KA6/RSK4, sequence (Q9UK32 whole entry): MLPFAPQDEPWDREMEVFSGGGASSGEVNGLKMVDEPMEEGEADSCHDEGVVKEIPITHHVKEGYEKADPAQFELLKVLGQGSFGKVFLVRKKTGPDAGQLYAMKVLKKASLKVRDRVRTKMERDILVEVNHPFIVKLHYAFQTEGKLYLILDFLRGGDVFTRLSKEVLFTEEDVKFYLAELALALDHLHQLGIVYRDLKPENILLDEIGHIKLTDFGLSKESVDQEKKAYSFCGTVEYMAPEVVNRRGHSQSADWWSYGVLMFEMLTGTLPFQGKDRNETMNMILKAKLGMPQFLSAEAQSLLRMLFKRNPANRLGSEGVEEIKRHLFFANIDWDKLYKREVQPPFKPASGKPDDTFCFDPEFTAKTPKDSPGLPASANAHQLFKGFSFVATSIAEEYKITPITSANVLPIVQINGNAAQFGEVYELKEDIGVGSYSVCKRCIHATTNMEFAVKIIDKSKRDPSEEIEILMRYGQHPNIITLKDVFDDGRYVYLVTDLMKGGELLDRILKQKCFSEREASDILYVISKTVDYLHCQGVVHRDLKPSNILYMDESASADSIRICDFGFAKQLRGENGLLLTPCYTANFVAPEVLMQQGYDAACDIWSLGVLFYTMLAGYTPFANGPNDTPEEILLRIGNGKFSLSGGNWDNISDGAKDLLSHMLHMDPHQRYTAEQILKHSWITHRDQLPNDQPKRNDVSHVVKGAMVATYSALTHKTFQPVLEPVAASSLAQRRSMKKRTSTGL
CHEK2, sequence (O96017 whole entry): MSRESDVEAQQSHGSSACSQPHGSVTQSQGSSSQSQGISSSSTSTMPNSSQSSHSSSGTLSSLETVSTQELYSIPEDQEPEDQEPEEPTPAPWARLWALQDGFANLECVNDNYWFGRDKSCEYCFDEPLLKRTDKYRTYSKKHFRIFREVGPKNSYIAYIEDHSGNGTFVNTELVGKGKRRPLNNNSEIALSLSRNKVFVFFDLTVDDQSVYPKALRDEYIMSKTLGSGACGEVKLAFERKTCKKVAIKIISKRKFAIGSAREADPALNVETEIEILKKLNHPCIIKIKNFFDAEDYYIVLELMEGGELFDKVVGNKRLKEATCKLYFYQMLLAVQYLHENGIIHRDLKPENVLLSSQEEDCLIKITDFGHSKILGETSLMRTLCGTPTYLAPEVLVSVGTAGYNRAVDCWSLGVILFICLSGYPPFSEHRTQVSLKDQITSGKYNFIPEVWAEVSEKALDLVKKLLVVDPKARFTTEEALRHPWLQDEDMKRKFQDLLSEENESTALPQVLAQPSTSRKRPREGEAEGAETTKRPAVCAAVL
STK33, sequence (Q9BYT3 whole entry): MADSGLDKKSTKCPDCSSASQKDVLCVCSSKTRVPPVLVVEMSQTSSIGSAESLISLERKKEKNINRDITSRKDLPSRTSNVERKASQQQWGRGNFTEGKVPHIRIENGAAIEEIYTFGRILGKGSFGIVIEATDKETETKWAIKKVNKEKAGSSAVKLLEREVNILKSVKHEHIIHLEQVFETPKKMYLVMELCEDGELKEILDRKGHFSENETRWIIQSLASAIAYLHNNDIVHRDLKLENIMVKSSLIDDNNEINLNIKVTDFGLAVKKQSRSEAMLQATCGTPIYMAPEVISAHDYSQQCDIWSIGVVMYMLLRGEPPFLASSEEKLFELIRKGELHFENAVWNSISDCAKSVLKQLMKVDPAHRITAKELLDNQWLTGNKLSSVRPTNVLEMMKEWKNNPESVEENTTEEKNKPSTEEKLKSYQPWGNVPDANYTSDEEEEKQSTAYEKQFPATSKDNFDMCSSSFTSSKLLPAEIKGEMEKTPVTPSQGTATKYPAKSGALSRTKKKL
PDGFRA, sequence (P16234 24-1089): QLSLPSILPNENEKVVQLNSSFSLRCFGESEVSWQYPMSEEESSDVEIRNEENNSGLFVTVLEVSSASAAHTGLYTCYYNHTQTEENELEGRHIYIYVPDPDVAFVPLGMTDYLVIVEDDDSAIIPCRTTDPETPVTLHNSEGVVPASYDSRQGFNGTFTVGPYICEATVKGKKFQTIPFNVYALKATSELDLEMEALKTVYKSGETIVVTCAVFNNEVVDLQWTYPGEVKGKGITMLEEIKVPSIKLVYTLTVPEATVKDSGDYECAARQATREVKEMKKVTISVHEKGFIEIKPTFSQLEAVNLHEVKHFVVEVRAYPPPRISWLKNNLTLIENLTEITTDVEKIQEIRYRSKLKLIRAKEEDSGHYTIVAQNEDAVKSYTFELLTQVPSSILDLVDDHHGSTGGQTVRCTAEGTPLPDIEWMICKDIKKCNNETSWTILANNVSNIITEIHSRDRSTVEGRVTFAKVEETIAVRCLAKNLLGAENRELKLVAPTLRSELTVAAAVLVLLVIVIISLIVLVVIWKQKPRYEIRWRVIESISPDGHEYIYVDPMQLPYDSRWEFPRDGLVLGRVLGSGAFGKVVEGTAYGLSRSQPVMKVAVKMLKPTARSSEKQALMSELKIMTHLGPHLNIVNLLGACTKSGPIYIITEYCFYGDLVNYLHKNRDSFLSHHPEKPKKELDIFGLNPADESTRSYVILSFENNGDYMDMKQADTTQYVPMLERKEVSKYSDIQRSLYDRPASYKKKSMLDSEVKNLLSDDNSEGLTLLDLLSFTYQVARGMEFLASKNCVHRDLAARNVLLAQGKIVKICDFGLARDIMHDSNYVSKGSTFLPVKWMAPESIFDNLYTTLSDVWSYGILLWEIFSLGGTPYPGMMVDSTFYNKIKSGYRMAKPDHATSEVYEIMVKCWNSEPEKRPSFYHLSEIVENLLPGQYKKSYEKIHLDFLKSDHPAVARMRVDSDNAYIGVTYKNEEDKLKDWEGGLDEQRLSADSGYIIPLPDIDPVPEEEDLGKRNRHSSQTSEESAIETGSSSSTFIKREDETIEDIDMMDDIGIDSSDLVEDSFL

For `COc1ccc2[nH]c3c4[nH]c5ccc(OC)cc5c4c4c(c3c2c1)C(=O)NC4=O` [GW296115], the inhibition at 1 µM was 94.7% on RPS6KA6/RSK4; 91.4% at PDGFRA; 91.4% at MAP4K4/HGK; 92% at STK33; 92.5% on CHEK2.
